Measured values as given in US9856212B1, “Biphenyl compounds and applications thereof” (Shenyang Sinochem Agrochemicals R&D Co., Ltd., priority 2017, dated 2018).

Experiments:
Format in all cases: in vivo
[1] = tested on: egg of spider mite (Tetranychuscinnabarinus); experiment: Test against egg of spider mite, greenhouse spray; conditions: eggs, 5 days
Procedure: Two true leaves of bean plants were taken and one true leaf was removed. Then ten healthy female adult spider mites were put into the true leaf. The adult spider mites were removed after 24 h and the eggs were investigated. The solution of certain concentrations of test compounds was sprayed by using a sprinkler. Three replicates were set for each treatment. The untreated eggs were all incubated after 5 days. The unincubation of treated eggs in leaf was observed, and incubation inhibition rate of the eggs was determined.

[2] = tested on: citrus red mite (Panonychuscitri); experiment: Field trial against citrus red mite (Jiangxi, China); conditions: orange orchard
Procedure: The trial was carried out in a 2-year-old Shatang orange orchard in Ganzhou city Jiangxi province, trifoliate orange trees were selected as stocks, the intervals between two plants was 1.50×2.50 m, the average height was 1.45 m and the crown width was 1.30 m. Two trees were selected in each plot, with random arrangement and 4 replications. Compound 1 (10% SC) was set at three different doses (100 mg/L, 50 mg/L and 25 mg/L), spirodiclofen (29% SC) was set at one dose (50 mg/L), and pyridaben (20% EC) was set at one dose (100 mg/L). MatabiSupergreen 16 Knapsack Sprayer 16 Liter was used to spray evenly with 2 L of spraying volume for each plant. The plants were treated once in May at that time, adults, nymphs, eggs of citrus red mite all existed, with adults/eggs=1/1.2. During the day the plants were treated, and the weather was good with the average temperature at 24° C. The first three days after treatment were all clear days. The number of mites was investigated before treatment and on the 1st, 3rd, 7th, 14th, 22nd and 28th day after treatment respectively. Two trees of each plot were investigated according to the five directions of the tree crown (east, south, west, north and central), 5 leaves in each direction were investigated to calculate the number of living mites, with 50 leaves each plot. The decline rate of mite population and corrected efficacy were calculated according to formulas below: The decline rate of mite population (%)=[(the average number of mite on each leaf before treatment−the average number of mite on each leaf after treatment)/the average number of mite on each leaf before treatment]×100. Corrected efficacy (%)=[(the decline rate of mite population in treated area−the decline rate of mite population in untreated area)/(100−the decline rate of mite population in untreated area)]×100.

[3] = tested on: deutonymph of spider mite (Tetranychuscinnabarinus); experiment: Test against deutonymph of spider mite, greenhouse spray; conditions: after 72 h
Procedure: Ten healthy female adult spider mites (Tetranychuscinnabarinus) were put into two true leaves of bean plants. The adult spider mites were removed after 24 h and the eggs were to be continued incubating. After ten days, the number of deutonymph were investigated and recorded. The solution of certain concentrations of test compounds was sprayed by using a sprinkler. Three replicates were set for each treatment. Then the deutonymph of spider mites were maintained in standard observation room. After 72 h, the survival mites in each leaf were observed, and mortality of the mites was determined.

[4] = tested on: adult spider mites (Tetranychuscinnabarinus); experiment: Test against adult spider mite, greenhouse spray on bean leaves; conditions: after 72 h
Procedure: The adult spider mites (Tetranychuscinnabarinus) were put into two true leaves of bean plants. After the number of mites were investigated, the solution of certain concentrations of test compounds was sprayed by using a sprinkler. Three replicates were set for each treatment. Then the leaves were maintained in standard observation room. After 72 h the survival mites in each leaf were observed, and mortality of the mites was determined.

spider mites = experiment: Test of systemic activity against spider mite through root absorption; conditions: root absorption 24 h, mites on bean leaves, after 72 h
Procedure: The high acaricidal compound 1 were dissolved in acetone, and then diluted with 0.1% aqueous solution of Tween 80 to form test solution in different concentration. Three replicates were set for each treatment. Water is blank control. The 10 ml compound 1 solution was added into the tube. Two true leaves bean plants were taken and the soil in the root was removed. The bean plant was dipped into the test solution in different concentration. After absorbing 24 h, 30 to 50 spider mites were put onto the true leaves. Then the bean plants were maintained in observation room at 25±1° C. After 72 h, the death and survival mites in each leaf was observed, the mortality of the mites and systemic activity was determined.

[5] = 50 mg/L, the 1st day after treatment
[6] = 50 mg/L, the 3rd day after treatment
[7] = 50 mg/L, the 7th day after treatment
[8] = 50 mg/L, the 14th day after treatment
[9] = 50 mg/L, the 22nd day after treatment
[10] = 50 mg/L, the 28th day after treatment
[11] = 100 mg/L, the 1st day after treatment
[12] = 100 mg/L, the 3rd day after treatment
[13] = 100 mg/L, the 7th day after treatment
[14] = 100 mg/L, the 14th day after treatment
[15] = 100 mg/L, the 22nd day after treatment
[16] = 100 mg/L, the 28th day after treatment

## CCC(C)(C)C(=O)OC1=C(c2ccc(Cl)cc2Cl)C(=O)OC12CCCCC2 [spirodiclofen, reference compound]
[1]; 0.25 mg/L
  Incubation inhibition rate (%): 13%
[1]; 1 mg/L
  Incubation inhibition rate (%): 37%
[1]; 5 mg/L
  Incubation inhibition rate (%): 100%
[2]; [5]
  Corrected efficacy (%): 20%
[2]; [6]
  Corrected efficacy (%): 48%
[2]; [7]
  Corrected efficacy (%): 63%
[2]; [8]
  Corrected efficacy (%): 80%
[2]; [9]
  Corrected efficacy (%): 71%
[2]; [10]
  Corrected efficacy (%): 70%

## CC(C)(C)c1ccc(CSc2cnn(C(C)(C)C)c(=O)c2Cl)cc1 [pyridaben, reference compound]
[3]; 0.25 mg/L
  Mortality (%): 25%
[3]; 0.5 mg/L
  Mortality (%): 60%
[3]; 1 mg/L
  Mortality (%): 84%
[2]; [11]
  Corrected efficacy (%): 0%
[2]; [12]
  Corrected efficacy (%): 65%
[2]; [13]
  Corrected efficacy (%): 90%
[2]; [14]
  Corrected efficacy (%): 93%
[2]; [15]
  Corrected efficacy (%): 92%
[2]; [16]
  Corrected efficacy (%): 95%

## Cc1cc(F)c(-c2cc(SCC(F)(F)F)c(C)cc2F)cc1SCC(F)(F)F [Compound 1]
[1]; 0.25 mg/L
  Incubation inhibition rate (%): 18%
[1]; 1 mg/L
  Incubation inhibition rate (%): 34%
[1]; 5 mg/L
  Incubation inhibition rate (%): 100%
[3]; 0.25 mg/L
  Mortality (%): 64%
[3]; 0.5 mg/L
  Mortality (%): 97%
[3]; 1 mg/L
  Mortality (%): 100%
[4]; 5 mg/L
  Mortality (%): 100%
[4]; 100 mg/L
  Mortality (%): 100%
[2]; 25 mg/L, the 1st day after treatment
  Corrected efficacy (%): 9%
[2]; 25 mg/L, the 3rd day after treatment
  Corrected efficacy (%): 53%
[2]; 25 mg/L, the 7th day after treatment
  Corrected efficacy (%): 74%
[2]; 25 mg/L, the 14th day after treatment
  Corrected efficacy (%): 77%
[2]; 25 mg/L, the 22nd day after treatment
  Corrected efficacy (%): 75%
[2]; 25 mg/L, the 28th day after treatment
  Corrected efficacy (%): 73%
[2]; [5]
  Corrected efficacy (%): 18%
[2]; [6]
  Corrected efficacy (%): 87%
[2]; [7]
  Corrected efficacy (%): 92%
[2]; [8]
  Corrected efficacy (%): 91%
[2]; [9]
  Corrected efficacy (%): 92%
[2]; [10]
  Corrected efficacy (%): 92%
[2]; [11]
  Corrected efficacy (%): 25%
[2]; [12]
  Corrected efficacy (%): 89%
[2]; [13]
  Corrected efficacy (%): 97%
[2]; [14]
  Corrected efficacy (%): 99%
[2]; [15]
  Corrected efficacy (%): 99%
[2]; [16]
  Corrected efficacy (%): 98%
Spider mites; 50 mg/L
  Mortality (%): 80%
Spider mites; 200 mg/L
  Mortality (%): 88%

## Cc1cc(F)c(-c2cc([S+]([O-])CC(F)F)c(C)cc2F)cc1SCC(F)F (centres unmarked) [Compound 63]
[4]; 100 mg/L
  Mortality (%): 100%

## Cc1cc(F)c(-c2cc([S+]([O-])CC(F)(F)F)c(C)cc2F)cc1[S+]([O-])CC(F)(F)F (centres unmarked) [Compound 3]
[4]; 100 mg/L
  Mortality (%): 100%

## Cc1cc(F)c(-c2cc([S+]([O-])CC(F)(F)F)c(C)cc2F)cc1SCC(F)(F)F (centres unmarked) [Compound 2]
[4]; 100 mg/L
  Mortality (%): 100%

## Cc1cc(F)c(-c2cc(SCC(F)F)c(C)cc2F)cc1SCC(F)F [Compound 62]
[4]; 100 mg/L
  Mortality (%): 100%
